These results are taken from PMC10539501 (Nature Communications, 2023).

Molecules are shown by their SMILES. Starred links: 1 amine or outer side, 2 acyl side, 3 side chain; linkers in the order of their positions; H or OH if unused. Non-standard residues stand in square brackets, D forms with d. Residues, ends and D or L forms follow the SMILES beside them. X13 = CC[C@H](C)[C@H](NC(=S)[C@@H]1CCCN1[*:1])C(=O)[*:2]; X17 = CC[C@H](C)[C@H](N[*:1])C(=S)N1CCC[C@H]1C(=O)[*:2]; AlaΨ(CSNH)Ala = C[C@H](NC(=S)[C@H](C)N[*:1])C(=O)[*:2]; X11 = CC[C@H](C)[C@H](N[*:1])C(=S)N[C@@H](C)C(=O)[*:2]; X2 = CC(C)C[C@H](NC(=S)[C@@H](CC(C)C)N[*:1])C(=O)[*:2]; X9 = O=C([C@@H]1CCCN1C(=S)[C@H](Cc1ccccc1)N[*:1])[*:2]; X14 = C[C@H](N[*:1])C(=S)N[C@@H](Cc1ccccc1)C(=O)[*:2]; X15 = CC(C)C[C@@H](NC(=S)[C@H]1CCCN1[*:1])C(=O)[*:2]; X19 = CC(C)C[C@H](NC(=S)[C@@H]1CCCN1[*:1])C(=O)[*:2]; X18 = C[C@@H](N[*:1])C(=S)N1CCC[C@H]1C(=O)[*:2]

The format of data set [1] is physicochemical.
The nature of data set [2]: PAMPA passive permeability.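 Further: passive permeability across an artificial membrane in 96-well pre-coated PAMPA plates, which lack transporters and efflux systems.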 The data set is classed as in vitro ADME. In general terms: In PAMPA a lipid-coated filter parts donor from acceptor wells.
Experimental: Encouraged by this, the passive permeability of the analogs was evaluated using an artificial membrane (PAMPA), which measures permeability of compounds in the absence of transporters and efflux systems[32].
96-well BD Corning® pre-coated PAMPA plates were used following the supplier’s protocol, details in Supplementary Information.
A short description of another data set: physchem. To be noted: pH 7.4.

As usually defined, the Papp is the rate of passage across a membrane or cell layer, normalised by area and donor concentration. Low readings indicate poor permeation, high ones ready permeation. For orientation: logD means lipophilicity at a set pH, counting ionised and neutral species. `CC[C@H](C)[C@@H]1NC(=O)[C@@H]2CCCN2C(=O)[C@H]([C@@H](C)CC)NC(=S)[C@@H]2CCCN2C(=O)[C@H](Cc2ccccc2)NC(=O)[C@H](C)NC(=O)[C@H](C)NC1=O` [11e] (cyclo(AAF[X13]PI)): the “% solubility” value in data set [1] is given as 65%. The Papp in data set [2] (Pe (PAMPA vs logD7.4)) turned out to be 0.83 ×10⁻⁶ cm/s; in data set [2] (Pe Avg) it was 0.8 ×10⁻⁶ cm/s. This molecule registered a logD in “physchem” of 0.58.
Molecule `CN(C(=O)[C@@H](N)Cc1ccccc1)[C@@H](Cc1c[nH]c2ccccc12)C(=O)O` [7b] came in with a logD in “physchem” of 0.21.
As for `CC[C@H](C)[C@@H]1NC(=O)[C@@H]2CCCN2C(=O)[C@H]([C@@H](C)CC)NC(=O)[C@@H]2CCCN2C(=O)[C@H](Cc2ccccc2)NC(=S)[C@H](C)NC(=O)[C@H](C)NC1=O` [11c] (cyclo(A[X14]PIPI)), the “% solubility” value in data set [1] came out at 76%. The molecule further had an apparent permeability (Papp) in data set [2] (Pe Avg) of 1 ×10⁻⁶ cm/s. The same molecule had a logD in “physchem” of 0.43.
For the molecule `CC(C)[C@@H](C(=O)O)N(C)C(=O)[C@@H](N)Cc1ccccc1` [5b], the logD in “physchem” is -0.62.
Regarding `CC(C)C[C@@H]1NC(=O)[C@@H]2CCCN2C(=O)[C@@H](C)NC(=O)[C@H](CC(C)C)NC(=S)[C@@H](CC(C)C)NC(=O)[C@H]2CCCN2C(=O)[C@H](CC(C)C)NC(=O)[C@@H](CC(C)C)NC1=O` [12d] (cyclo(L[dL]L[dP][X2][dA]P)), the “% solubility” value in data set [1] worked out at 25%. This molecule also showed a Papp in data set [2] (Pe Avg) of 8.9 ×10⁻⁶ cm/s. In addition, the logD in “physchem” amounted to 1.82.
Consider `CSCC[C@H](NC(=O)[C@@H](N)Cc1ccccc1)C(=O)O` [compound 6] (H-Phe-Met-OH), for which the logD in “physchem” was -1.41.
On to `CN(CC(=O)O)C(=O)[C@@H](N)Cc1ccccc1` [3b], for which the logD in the data set “physchem” was -1.73.
Consider `NCCCC[C@H](NC(=S)[C@@H](N)Cc1ccccc1)C(=O)O` [1a], for which, in the data set “physchem”, the logD is -2.12.
In “physchem”, `C[C@@H](C(=O)O)N(C)C(=O)[C@@H](N)Cc1ccccc1` [4b] had a logD of -1.76.
As to `CC[C@H](C)[C@@H]1NC(=O)[C@@H]2CCCN2C(=O)[C@H]([C@@H](C)CC)NC(=O)[C@@H]2CCCN2C(=O)[C@H](Cc2ccccc2)NC(=O)[C@H](C)NC(=S)[C@H](C)NC1=O` [11b] (cyclo(FPIPI[AlaΨ(CSNH)Ala])), in data set [1], the “% solubility” value amounted to 93%. The Papp in data set [2] (Pe (PAMPA vs logD7.4)) was 0.42 ×10⁻⁶ cm/s; in data set [2] (Pe Avg) it was 0.4 ×10⁻⁶ cm/s. In addition, the log distribution coefficient (logD) in “physchem” was determined as 0.28.
Take `N[C@@H](Cc1ccccc1)C(=S)NCC(=O)O` [3a]: the logD in the data set “physchem” was -1.61.
Same read-out and setting: next, `CSCC[C@H](NC(=S)[C@@H](N)Cc1ccccc1)C(=O)O` [6a]: -0.79.
In the case of `CC[C@H](C)[C@@H]1NC(=O)[C@@H]2CCCN2C(=O)[C@H]([C@@H](C)CC)NC(=O)[C@@H]2CCCN2C(=S)[C@H](Cc2ccccc2)NC(=O)[C@H](C)NC(=O)[C@H](C)NC1=O` [11d] (cyclo(AA[X9]IPI)), the “% solubility” value in data set [1] is listed as 85%. The Papp in data set [2] (Pe Avg) came out at 0.4 ×10⁻⁶ cm/s. In the data set “physchem”, this molecule had a logD of 0.33.
`CC(C)[C@H](NC(=S)[C@@H](N)Cc1ccccc1)C(=O)O` [5a]: in “physchem”, the logD is -0.92.
For `N[C@@H](Cc1ccccc1)C(=S)N[C@@H](CCC(=O)O)C(=O)O` [2a], the logD in “physchem” was -1.45.
As for `CC(C)C[C@@H]1NC(=O)[C@@H](CC(C)C)NC(=O)[C@H]2CCCN2C(=O)[C@H](CC(C)C)NC(=S)[C@@H](CC(C)C)NC(=O)[C@H](CC(C)C)NC(=O)[C@@H]2CCCN2C(=O)[C@@H](C)NC1=O` [12a] (cyclo(L[dA]PL[X2][dP][dL])), in data set [1], the “% solubility” value is 69%. The same molecule yielded a Papp in data set [2] (Pe Avg) of 4.4 ×10⁻⁶ cm/s. The logD in the data set “physchem” stood at 1.34.
For the molecule `CN(C(=O)[C@@H](N)Cc1ccccc1)[C@@H](CCC(=O)O)C(=O)O` [2b], in “physchem”, the pH-dependent lipophilicity (logD) was -2.14.
Same read-out and setting: next, `CSCC[C@@H](C(=O)O)N(C)C(=O)[C@@H](N)Cc1ccccc1` [6b]: -1.05; `CC(C)[C@H](NC(=O)[C@@H](N)Cc1ccccc1)C(=O)O` [compound 5] (H-Phe-Val-OH): -1.28; `N[C@@H](Cc1ccccc1)C(=S)N[C@@H](Cc1c[nH]c2ccccc12)C(=O)O` [7a]: 0.13.
`N[C@@H](Cc1ccccc1)C(=O)NCC(=O)O` [compound 3] (H-Phe-Gly-OH): the logD in the data set “physchem” is -2.22.
Consider `N[C@@H](Cc1ccccc1)C(=O)N[C@@H](Cc1c[nH]c2ccccc12)C(=O)O` [compound 7] (H-Phe-Trp-OH), for which the logD in “physchem” was -0.65.
On the same count and under the same terms, to `N[C@@H](Cc1ccccc1)C(=O)N[C@@H](CCC(=O)O)C(=O)O` [compound 2] (H-Phe-Glu-OH) belongs -2.56.
With `CC(C)C[C@@H]1NC(=O)[C@@H](CC(C)C)NC(=O)[C@H]2CCCN2C(=O)[C@H](CC(C)C)NC(=O)[C@@H](CC(C)C)NC(=O)[C@H](CC(C)C)NC(=S)[C@@H]2CCCN2C(=O)[C@@H](C)NC1=O` [12g] (cyclo(L[dA][X19][dL]L[dP][dL])), the “% solubility” value in data set [1] amounted to 46%. This molecule also registered an apparent permeability coefficient (Papp) in data set [2] (Pe Avg) of 10.2 ×10⁻⁶ cm/s. Further, the logD in “physchem” was 1.59.
Consider `NCCCC[C@H](NC(=O)[C@@H](N)Cc1ccccc1)C(=O)O` [compound 1], for which the logD in the data set “physchem” is -2.88.
On to `C[C@H](NC(=S)[C@@H](N)Cc1ccccc1)C(=O)O` [4a], for which, in the data set “physchem”, the logD was -1.76.
Regarding `CC[C@H](C)[C@@H]1NC(=S)[C@@H]2CCCN2C(=O)[C@H]([C@@H](C)CC)NC(=O)[C@@H]2CCCN2C(=O)[C@H](Cc2ccccc2)NC(=O)[C@H](C)NC(=O)[C@H](C)NC1=O` [11g] (cyclo(AAFPI[X13])), in data set [1], the “% solubility” value is reported as 93%. The Papp in data set [2] (Pe (PAMPA vs logD7.4)) was determined as 0.35 ×10⁻⁶ cm/s; in data set [2] (Pe Avg) it was 0.3 ×10⁻⁶ cm/s. Moreover, the logD in the data set “physchem” was found to be 0.29.
As to `CC[C@H](C)[C@@H]1NC(=O)[C@@H]2CCCN2C(=S)[C@H]([C@@H](C)CC)NC(=O)[C@@H]2CCCN2C(=O)[C@H](Cc2ccccc2)NC(=O)[C@H](C)NC(=O)[C@H](C)NC1=O` [11f] (cyclo(AAFP[X17]I)), the “% solubility” value in data set [1] is 76%. The molecule also had a Papp in data set [2] (Pe Avg) of 1.1 ×10⁻⁶ cm/s. The molecule further gave a logD in “physchem” of 0.37.
For `CC[C@H](C)[C@@H]1NC(=O)[C@@H]2CCCN2C(=O)[C@H](Cc2ccccc2)NC(=O)[C@H](C)NC(=O)[C@H](C)NC(=S)[C@H]([C@@H](C)CC)NC(=O)[C@@H]2CCCN2C1=O` [11a] (cyclo(AFPIP[X11])), in data set [1], the “% solubility” value was found to be 74%. The “Pe Avg” value in data set [2] was found to be 4.6 ×10⁻⁶ cm/s. In addition, the Papp in data set [2] (Pe (PAMPA vs logD7.4)) was 4.67 ×10⁻⁶ cm/s. The same molecule came in with a logD in the data set “physchem” of 0.55.
For `CN(C(=O)[C@@H](N)Cc1ccccc1)[C@@H](CCCCN)C(=O)O` [1b], the logD in “physchem” is -1.95.
Turning to `CC(C)C[C@@H]1NC(=O)[C@@H](CC(C)C)NC(=O)[C@H]2CCCN2C(=O)[C@H](CC(C)C)NC(=O)[C@@H](CC(C)C)NC(=O)[C@H](CC(C)C)NC(=O)[C@@H]2CCCN2C(=S)[C@@H](C)NC1=O` [12f] (cyclo(L[dL]L[dP][dL]L[X18])), the “% solubility” value in data set [1] was found to be 30%. The Papp in data set [2] (Pe Avg) came out at 6.4 ×10⁻⁶ cm/s. Besides, in the data set “physchem”, the pH-dependent lipophilicity (logD) was determined as 1.58.
For `CC(C)C[C@@H]1NC(=O)[C@@H](CC(C)C)NC(=S)[C@H]2CCCN2C(=O)[C@H](CC(C)C)NC(=O)[C@@H](CC(C)C)NC(=O)[C@H](CC(C)C)NC(=O)[C@@H]2CCCN2C(=O)[C@@H](C)NC1=O` [12c] (cyclo(L[dA]PL[dL]L[X15])), in that order: 15%, 1.4 ×10⁻⁶ cm/s and 2.3.
